Data as given in US5705649A, “Protein staining compositions and methods” (Promega Corporation, priority 1995, dated 1998).

Columns and labels:
[1] = system: Promega Mid Range Molecular Weight Standards; experiment: Detection of denatured protein with dodecylamino and octylamino derivatives of fluorescein isothiocyanate
Procedure: A fifteen well, 12% gel was made as described in example 5 and was loaded with diluted Promega Mid Range Molecular Weight Standards to produce lanes containing samples having 200, 100, 80, 60, 40, 20 and 10 ng of protein per band. The gel was run as described in example 5 except that Promega Green 1 was not added to the cathode buffer. After electrophoresis, the gel was cut between lanes to produce gel segments containing fractionated protein samples at each of the concentrations listed above and these were placed in 30% methanol for 25-30 min at room temperature. The stock stain solutions of Example 33 were then diluted into distilled water at a concentration of 0.5% (v/v), and 50 ml of these solutions were used to stain the gels. After 1 hr incubation, the gels were visualized and photographed using a transilluminator. […] The gels were then placed in 5% methanol and allowed to destain overnight.
Gels were made and loaded as described in Example 34. The gels were incubated in 30% methanol for 15 min to fix the protein and then were incubated in 50 ml of a solution of the stains of Example 38 made by dilution of the stock stain solutions described in Example 38 to a concentration of 0.5% (v/v) in distilled water. After incubation in the staining solution for 1 hr, the gels were placed in 5% methanol and were visualized and photographed after 30 min by placement of the gel segment on a transilluminator. Photography of the segments was performed as described in Example 27. At this point, protein bands were visualized in the gel stained with the dodecylamino derivative at a concentration as low as 80 ng of protein per band.
The gel segments were then returned to the destaining solutions and allowed to incubate overnight. The segment of the gel stained with the octylamino derivative was transferred to a solution of 30% methanol following the overnight incubation and was revisualized and rephotographed after 1 hr of incubation in this methanol solution. At this point, protein was detected at fluorescently labeled bands to a concentration as low as 40 ng of protein per band.

[2] = Spectral analyses of Coomassie Blue R and Promega Green 1, 2, 3; type: physicochemical; conditions: diluted 1:500 in 1:1 methanol:water
Procedure: The three solutions of Promega Green 1, 2, and 3, from examples 1, 2 and 3 respectively, were diluted approximately 500 fold into a 1:1 solution of methanol:water. The spectra of the resulting solutions and of a 12 μg/ml solution of Coomassie Blue R (in 1:1 methanol:water) were recorded from 700 to 340 nm versus 1:1 methanol:water. […] All of the derivatives gave essentially identical spectra; however, the maximal absorbance of the diluted Promega Green i was about twice that seen for the other derivatives. The derivatives had two peak absorptions in the region of the spectrum scanned, a major peak at around 630 nm and a second peak at around 440 nm. The following absorbances were recorded at the peaks near 630 nm for the three Promega Green dye solutions (diluted 1:500 in 1:1 methanol:water): […]

[3] = system: Promega Mid-Range Molecular Weight Markers; experiment: Detection of proteins during SDS-PAGE electrophoresis (dye in cathode buffer); conditions: 10% SDS-PAGE, dye in cathode buffer, white plastic card behind gel
Excerpt: Solutions for the formation and electrophoresis of proteins were made according to the instructions given in Experiments in Gene Fusions, Silhavy, Berman, Enquist, Cold Spring Harbor Laboratory Press, Cold Spring Harbor, N.Y. with the following changes:
a) The SDS concentration in the upper and lower gel buffer components were reduced to result in a 0.05% final SDS concentration in the gel. Thus, the composition of 4× upper gel buffer was 0.5M Tris-HCl, pH 6.8, 0.2 % (w/v) sodium dodecylsulfate (SDS) and the composition of 4× lower gel buffer was 1.5M Tris-HCl, pHS.8, 0.2 % (w/v) SDS.
b) The SDS concentration in the electrophoretic (electrode) buffer was reduced to 0.04% final concentration. Thus, 4× electrode (anode or cathode) buffer was made by dissolving 60 g Tris base, 288 g glycine, and 8 g SDS dissolved in water and then diluting with water to 5 liters. Another name sometimes used for "electrode" buffer is "running" buffer.
c) The SDS concentration in the 2× sample buffer was reduced to 1% final SDS concentration. Thus, 2× sample buffer was made by mixing 0.5 ml of betamercaptoethanol, 0.25 ml of 0.1% (w/v) bromophenol blue, 1 ml of 10 % (w/v) SDS, 3 ml of water, and 5.3 ml of 2× glycerol buffer. 2× glycerol buffer is made by mixing 12.5 ml of 4× upper gel buffer and 20 ml of glycerol and diluting the resulting solution to 60 ml with water. Another name sometimes used for "sample" buffer is "loading" buffer.
d) Electrophoresis was performed using a BIO-RAD miniprotein II electrophoresis apparatus and gels were poured such that i cm of space was present between the bottom of the loading wells and the separating gel.
In other electrophoresis experiments reported in this application, the buffers used were as described above in this example. In some cases, as in this example, where preparation of a solution of dye in 150 ml of cathode (or electrode) buffer is specified, an amount of stock solution of a dye was first added to 150 ml of cathode buffer and then 125 ml of the resulting solution was used to fill the cathode buffer chamber (which holds 125 ml) in the electrophoresis apparatus. In other cases, where addition of stock solution of dye to the cathode buffer is specified without reference to the volume of cathode buffer or with reference to such volume being "125 ml," the stock solution was added directly to 125 ml of cathode buffer already in the cathode buffer chamber.
The samples used were prepared with Promega Mid-Range Molecular Weight Markers solution (Promega Corp., Madison, Wis., USA, Catalog No. V5231) (referred to hereinafter as "Promega Mid-Range [Molecular Weight] Markers or Standards") diluted into Sample Buffer. […]

[4] = system: Promega Mid-Range Molecular Weight Markers; experiment: Enhancement of staining of proteins in SDS-PAGE gels in 5% acetic acid; conditions: 5% acetic acid
Procedure: The gels described above were placed in 5% acetic acid following the termination of the electrophoretic separation. Within one to two minutes the gel developed a light green background but the protein bands dramatically darkened to a green color. […] Again, the color of the background darkened to a greater degree when greater concentrations of dye were used.
The gels above (from Example 7) were placed in 5% acetic acid following termination of the electrophoretic separation. Within 1-2 minutes, all the gels turned light green and the color of the stained bands intensified such that all proteins were visible--even in the lane containing 0.25 μg protein/band.
The gels above (Example 9) were placed in 5% acetic acid following termination of the electrophoretic separation. Within 1-2 minutes, all the gels turned light green and the color of the stained bands intensified such that all proteins were visible--even in the lanes containing 0.25 μg protein/band.

[5] = 0.5% (v/v) stain 1 hr, 5% methanol 30 min

## CCCCCCCCNC(=S)Nc1ccc(-c2c3ccc(=O)cc-3oc3cc(O)ccc23)c(C(=O)O)c1 [octylamino derivative]
[1]; [5]
  background / visualization of bands: high background fluorescence which prevented visualization of the protein bands
[1]; after overnight destaining, then 30% methanol 1 hr
  lowest protein per band detected: 40 ng

## CCCCCCCCCCCCNC(=S)Nc1ccc(-c2c3ccc(=O)cc-3oc3cc(O)ccc23)c(C(=O)O)c1 [dodecylamino derivative]
[1]; [5]
  lowest protein per band visualized: 80 ng

## CCOc1ccc(N(C(C)=O)c2ccc(C(=C3C=CC(=[N+](CC)Cc4cccc(S(=O)(=O)[O-])c4)C=C3)c3ccc(N(CC)Cc4cccc(S(=O)(=O)O)c4)cc3)cc2)cc1 [Promega Green 2]
[2]
  Absorbance at the peak near 630 nm: 1.37
[3]
  lowest protein amount per band visible while the gel was running: 1.0 µg
[4]; 1-2 minutes
  lowest protein amount per band visible after enhancement: 0.25 µg
[4]; overnight
  staining after overnight incubation: slightly faded
